ChEMBL document CHEMBL4002627, “Quinolidene based monocarbonyl curcumin analogues as promising antimycobacterial agents: Synthesis and molecular docking study” (Bioorg Med Chem Lett, 2017)
In brackets after ≈: the same amount, converted by molar mass.

Tests used:
Format in all cases: functional
[1] = system: Mycobacterium tuberculosis; experiment: Antimycobacterial activity against dormant state of Mycobacterium bovis BCG assessed as growth inhibition at 10 ug/ml after 12 days by nitrate reductase assay relative to control; conditions: variant bovis BCG, 288 h, read-out: GI
[2] = system: Mycobacterium tuberculosis; experiment: Antimycobacterial activity against dormant state of Mycobacterium bovis BCG by two fold dilution method; conditions: variant bovis BCG
[3] = system: Mycobacterium tuberculosis; experiment: Antimycobacterial activity against dormant state of Mycobacterium bovis BCG assessed as growth inhibition at 3 ug/ml after 12 days by nitrate reductase assay relative to control; conditions: variant bovis BCG, 288 h, read-out: GI
[4] = system: Mycobacterium tuberculosis; experiment: Antimycobacterial activity against dormant state of Mycobacterium bovis BCG assessed as growth inhibition at 30 ug/ml after 12 days by nitrate reductase assay relative to control; conditions: variant bovis BCG, 288 h, read-out: GI

Row | SMILES | inhibition of growth at 10 µg/mL [1] | MIC50 [2] | MIC90 [2] | inhibition of growth at 3 µg/mL [3] | inhibition of growth at 30 µg/mL [4]
1 | COc1ccc2cc(/C=C3\CN(C)C/C(=C\c4cc5ccc(OC)cc5nc4Cl)C3=O)c(Cl)nc2c1 | 95.6% | 5.8 µg/mL (≈ 11.1 µM) | 9.4 µg/mL (≈ 18.1 µM) | 22.3% | 92.4%
2 | Cc1cccc2cc(/C=C3\CN(C)C/C(=C\c4cc5cccc(C)c5nc4Cl)C3=O)c(Cl)nc12 | 35.9% | 20.8 µg/mL (≈ 42.6 µM) | > 30 µg/mL | 19.1% | 62.4%
3 | CN1C/C(=C\c2cc3ccccc3nc2Cl)C(=O)/C(=C/c2cc3ccccc3nc2Cl)C1 | 61.7% | 6 µg/mL (≈ 13 µM) | 7.3 µg/mL (≈ 15.9 µM) | 31.7% | 97.5%
4 | Cc1ccc2cc(/C=C3\CN(C)C/C(=C\c4cc5ccc(C)cc5nc4Cl)C3=O)c(Cl)nc2c1 | 89.4% | 5.8 µg/mL (≈ 11.9 µM) | 15.4 µg/mL (≈ 31.5 µM) | 23.2% | 90.4%
5 | CO[C@H]1/C=C/O[C@@]2(C)Oc3c(C)c(O)c4c(O)c(c(/C=N/N5CCN(C)CC5)c(O)c4c3C2=O)NC(=O)/C(C)=C\C=C\[C@H](C)[C@H](O)[C@@H](C)[C@@H](O)[C@@H](C)[C@H](OC(C)=O)[C@@H]1C [RIFAMPIN] | – | 0.0043 µg/mL (≈ 0.00523 µM) | 0.0173 µg/mL (≈ 0.021 µM) | – | –
6 | CN1C/C(=C\c2cc3cc(F)ccc3nc2Cl)C(=O)/C(=C/c2cc3cc(F)ccc3nc2Cl)C1 | 1% | 25.6 µg/mL (≈ 51.6 µM) | > 30 µg/mL | 17.6% | 63.8%
7 | Cc1ccc2nc(Cl)c(/C=C3\CN(C)C/C(=C\c4cc5cc(C)ccc5nc4Cl)C3=O)cc2c1 | 1% | > 30 µg/mL | > 30 µg/mL | -5.7% | 20.2%
8 | Cc1ccc2nc(Cl)c(/C=C3\CNC/C(=C\c4cc5cc(C)ccc5nc4Cl)C3=O)cc2c1 | 38.5% | > 30 µg/mL | > 30 µg/mL | 35.3% | 45.9%
9 | COc1ccc2nc(Cl)c(/C=C3\CNC/C(=C\c4cc5cc(OC)ccc5nc4Cl)C3=O)cc2c1 | 48.4% | 11 µg/mL (≈ 21.7 µM) | 27.2 µg/mL (≈ 53.7 µM) | 28% | 97.2%
10 | CN1C/C(=C\c2cc3cc(Cl)ccc3nc2Cl)C(=O)/C(=C/c2cc3cc(Cl)ccc3nc2Cl)C1 | 82.1% | 3.3 µg/mL (≈ 6.24 µM) | 21.5 µg/mL (≈ 40.6 µM) | 49% | 96.2%
11 | O=C1/C(=C/c2cc3cc(Cl)ccc3nc2Cl)CNC/C1=C\c1cc2cc(Cl)ccc2nc1Cl | 24.6% | 19.7 µg/mL (≈ 38.2 µM) | > 30 µg/mL | 37.5% | 77.6%
12 | COc1ccc2nc(Cl)c(/C=C3\CN(C)C/C(=C\c4cc5cc(OC)ccc5nc4Cl)C3=O)cc2c1 | 13.3% | > 30 µg/mL | > 30 µg/mL | 22.9% | 31.9%
13 | Cc1cccc2cc(/C=C3\CNC/C(=C\c4cc5cccc(C)c5nc4Cl)C3=O)c(Cl)nc12 | 66.7% | 2.5 µg/mL (≈ 5.27 µM) | > 30 µg/mL | 52.1% | 77.1%
14 | O=C1/C(=C/c2cc3cc(F)ccc3nc2Cl)CNC/C1=C\c1cc2cc(F)ccc2nc1Cl | 93.4% | 2.1 µg/mL (≈ 4.35 µM) | 9.2 µg/mL (≈ 19.1 µM) | 61.9% | 96.1%
15 | O=C1/C(=C/c2cc3ccccc3nc2Cl)CNC/C1=C\c1cc2ccccc2nc1Cl | 50.6% | 9.6 µg/mL (≈ 21.5 µM) | > 30 µg/mL | 38.3% | 79.7%
16 | Cc1ccc2cc(/C=C3\CNC/C(=C\c4cc5ccc(C)cc5nc4Cl)C3=O)c(Cl)nc2c1 | 43.4% | 12.9 µg/mL (≈ 27.2 µM) | > 30 µg/mL | 33.8% | 89.8%
17 | COc1ccc2cc(/C=C3\CNC/C(=C\c4cc5ccc(OC)cc5nc4Cl)C3=O)c(Cl)nc2c1 | 98.3% | 1.4 µg/mL (≈ 2.76 µM) | 2.7 µg/mL (≈ 5.33 µM) | 94.6% | 96.8%
